These results are taken from patent publication US7652055B2, “2-imidazolines” (Hoffman-La Roche Inc., priority 2007, dated 2010).

T1 sequence (Q923Y8 whole entry): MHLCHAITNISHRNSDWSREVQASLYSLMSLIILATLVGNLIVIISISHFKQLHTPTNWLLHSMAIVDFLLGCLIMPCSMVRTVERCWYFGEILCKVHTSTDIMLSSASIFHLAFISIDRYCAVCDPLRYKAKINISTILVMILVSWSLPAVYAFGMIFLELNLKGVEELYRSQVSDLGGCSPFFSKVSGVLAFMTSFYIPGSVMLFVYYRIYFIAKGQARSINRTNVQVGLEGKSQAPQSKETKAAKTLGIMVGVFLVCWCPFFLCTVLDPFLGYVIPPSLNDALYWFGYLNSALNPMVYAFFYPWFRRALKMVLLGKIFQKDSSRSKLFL

One experiment has as its target T1, TAAR1 (Mus musculus, UniProt Q923Y8).
T1 construct: expressed in transfected cells; host or cells: HEK293 (ATCC # CRL-1573), stably transfected with pIRESneo2 expression plasmid; membranes prepared
Briefly: Radioligand binding assay on membranes of HEK293 cells stably expressing TAAR1. The note with it: mouse TAAR1; radioligand [3H]-rac-2-(1,2,3,4-tetrahydro-1-naphthyl)-2-imidazoline at 60 nM; 4° C., 30 min. Here is the method: Construction of TAAR Expression Plasmids and Stably Transfected Cell Lines
For the construction of expression plasmids the coding sequences of human, rat and mouse TAAR 1 were amplified from genomic DNA essentially as described by Lindemann et al.. The Expand High Fidelity PCR System (Roche Diagnostics) was used with 1.5 mM Mg^2+ and purified PCR products were cloned into pCR2.1-TOPO cloning vector (Invitrogen) following the instructions of the manufacturer. PCR products were subcloned into the pIRESneo2 vector (BD Clontech, Palo Alto, Calif.), and expression vectors were sequence verified before introduction in cell lines.
HEK293 cells (ATCC # CRL-1573) were cultured essentially as described Lindemann et al. (2005). For the generation of stably transfected cell lines HEK293 cells were transfected with the pIRESneo2 expression plasmids containing the TAAR coding sequences (described above) with Lipofectamine 2000 (Invitrogen) according to the instructions of the manufacturer, and 24 hrs post transfection the culture medium was supplemented with 1 mg/ml G418 (Sigma, Buchs, Switzerland). After a culture period of about 10 d clones were isolated, expanded and tested for responsiveness to trace amines (all compounds purchased from Sigma) with the cAMP Biotrak Enzyme immunoassay (EIA) System (Amersham) following the non-acetylation EIA procedure provided by the manufacturer.
Membrane Preparation and Radioligand Binding
Cells at confluence were rinsed with ice-cold phosphate buffered saline without Ca^2+ and Mg^2+ containing 10 mM EDTA and pelleted by centrifugation at 1000 rpm for 5 min at 4° C. The pellet was then washed twice with ice-cold phosphate buffered saline and cell pellet was frozen immediately by immersion in liquid nitrogen and stored until use at −80° C. Cell pellet was then suspended in 20 ml HEPES-NaOH (20 mM), pH 7.4 containing 10 mM EDTA, and homogenized with a Polytron (PT 3000, Kinematica) at 10,000 rpm for 10 s. The homogenate was centrifuged at 48,000×g for 30 min at 4° C. and the pellet resuspended in 20 ml HEPES-NaOH (20 mM), pH 7.4 containing 0.1 mM EDTA (buffer A), and homogenized with a Polytron at 10,000 rpm for 10 s. The homogenate was then centrifuged at 48,000×g for 30 min at 4° C. and the pellet resuspended in 20 ml buffer A, and homogenized with a Polytron at 10,000 rpm for 10 s. Protein concentration was determined by the method of Pierce (Rockford, Ill.). The homogenate was then centrifuged at 48,000×g for 10 min at 4° C., resuspended in HEPES-NaOH (20 mM), pH 7.0 including MgCl2 (10 mM) and […] homogenized with a Polytron at 10,000 rpm for 10 s.
Binding assay was performed at 4° C. in a final volume of 1 ml, and with an incubation time of 30 min. The radioligand [^3H]-rac-2-(1,2,3,4-tetrahydro-1-naphthyl)-2-imidazoline was used at a concentration equal to the calculated Kd value of 60 nM to give a bound at around 0.1% of the total added radioligand concentration, and a specific binding which represented approximately 70-80% of the total binding. Non-specific binding was defined as the amount of [^3H]-rac-2-(1,2,3,4-tetrahydro-1-naphthyl)-2-imidazoline bound in the presence of the appropriate unlabelled ligand (10 μM). Competing ligands were tested in a wide range of concentrations (10 pM-30 μM). […] Each experiment was performed in duplicate. All incubations were terminated by rapid filtration through UniFilter-96 plates (Packard Instrument Company) and glass filter GF/C, pre-soaked for at least 2 h in polyethylenimine 0.3%, and using a Filtermate 96 Cell Harvester (Packard Instrument Company). The tubes and filters were then washed 3 times with 1 ml aliquots of cold buffer B. Filters were not dried and soaked in Ultima gold (45 μl/well, Packard Instrument Company) and bound radioactivity was counted by a TopCount Microplate Scintillation Counter (Packard Instrument Company).
In turn, `Clc1cc(NCC2=NCCN2)ccc1Br` [Example 1, (4-Bromo-3-chloro-phenyl)-(4,5-dihydro-1H-imidazol-2-ylmethyl)-amine] showed a Ki of 0.0022 µM.

In turn, `Fc1cc(NCC2=NCCN2)ccc1Cl` [Example 2, (4-Chloro-3-fluoro-phenyl)-(4,5-dihydro-1H-imidazol-2-ylmethyl)-amine] returned a Ki of 0.0011 µM.

Consider `CN(CC1=NCCN1)c1cccc(Cl)c1` [Example 3, (3-Chloro-phenyl)-(4,5-dihydro-1H-imidazol-2-ylmethyl)-methyl-amine], for which the Ki was found to be 0.0084 µM.

`CN(CC1=NCCN1)c1ccc(Cl)c(Cl)c1` [Example 4, (3,4-Dichloro-phenyl)-(4,5-dihydro-1H-imidazol-2-ylmethyl)-methyl-amine] gave a Ki of 0.0059 µM. This Ki and that of the compound before are within 1.5-fold of each other.

`Cc1c(NCC2=NCCN2)ccc2occc12` [Example 7, (4,5-Dihydro-1H-imidazol-2-ylmethyl)-(4-methyl-benzofuran-5-yl)-amine]: the Ki turned out to be 0.0028 µM. Compared with the last compound, the Ki is about 2.1-fold lower.

Take `COc1ccc(Cc2ccc(NCC3=NCCN3)cc2)cc1` [Example 8, (4,5-Dihydro-1H-imidazol-2-ylmethyl)-[4-(4-methoxy-benzyl)-phenyl]-amine]: the affinity, expressed as Ki, was 0.0443 µM.

`COc1ccccc1N(C)CC1=NCCN1` [Example 9, (4,5-Dihydro-1H-imidazol-2-ylmethyl)-(2-methoxy-phenyl)-methyl-amine] had an inhibition constant (Ki) of 0.0432 µM.

In the case of `CC(C)Oc1ccc(C(=O)CCc2ccc(OC(C)C3=NCCN3)cc2)cc1` (stereo not drawn) [Example 12, 3-{4-[1-(4,5-Dihydro-1H-imidazol-2-yl)-ethoxy]-phenyl}-1-(4-isopropoxy-phenyl)-propan-1-one], the Ki was determined as 0.0158 µM.

The compound `CC(C)Oc1ccc(OCc2ccc(OCC3=NCCN3)cc2)cc1` [Example 13, 2-[4-(4-Isopropoxy-phenoxymethyl)-phenoxymethyl]-4,5-dihydro-1H-imidazole] showed a Ki of 0.025 µM.

In turn, `c1ccc(Cc2cccc(OCC3=NCCN3)c2)cc1` [Example 14, 2-(3-Benzyl-phenoxymethyl)-4,5-dihydro-1H-imidazole] returned a Ki of 0.0054 µM. Compared with the last compound, the Ki is about 4.6-fold lower.

For `c1ccc(CCCc2ccc(OCC3=NCCN3)cc2)cc1` [Example 15, 2-[4-(3-Phenyl-propyl)-phenoxymethyl]-4,5-dihydro-1H-imidazole], affinity was put at a Ki of 0.0441 µM. This Ki lies about 8.2-fold higher than the previous one.

On to `c1cc2ccc(OCC3=NCCN3)cc2o1` [Example 17, 2-(Benzofuran-6-yloxymethyl)-4,5-dihydro-1H-imidazole], for which the Ki worked out at 0.0372 µM. This Ki and that of the compound before are within 1.5-fold of each other.

Consider `FC(F)(F)c1cccc(OCC2=NCCN2)c1Cl` [Example 20, 2-(2-Chloro-3-trifluoromethyl-phenoxymethyl)-4,5-dihydro-1H-imidazole], for which the affinity, expressed as Ki, was 0.0016 µM.

With `Fc1cccc(OCC2=NCCN2)c1F` [Example 21, 2-(2,3-Difluoro-phenoxymethyl)-4,5-dihydro-1H-imidazole], the affinity, expressed as Ki, was 0.0341 µM.

Regarding `Cc1c(O)ccc(OCC2=NCCN2)c1C` [Example 24, 4-(4,5-Dihydro-1H-imidazol-2-ylmethoxy)-2,3-dimethyl-phenol], the Ki was found to be 0.093 µM.

`Clc1ccc(OCC2=NCCN2)cc1Cl` [Example 27, 2-(3,4-Dichloro-phenoxymethyl)-4,5-dihydro-1H-imidazole] gave a Ki of 0.0329 µM. Against the preceding compound, the Ki is about 2.8-fold lower.

With `Clc1cccc(SCC2=NCCN2)c1Cl` [Example 31, 2-(2,3-Dichloro-phenylsulfanylmethyl)-4,5-dihydro-1H-imidazole], the affinity corresponds to a Ki of 0.0075 µM.

In turn, `Cc1ccc(NNC2=NCCN2)cc1C` [Example 35, N-(4,5-Dihydro-1H-imidazol-2-yl)-N′-(3,4-dimethyl-phenyl)-hydrazine] displayed a Ki of 0.044 µM.

`Clc1ccc(NCC2=NCCN2)cc1` [Example K1, (4-Chloro-phenyl)-(4,5-dihydro-1H-imidazol-2-ylmethyl)-amine] had a Ki of 0.023 µM.

`Clc1cccc(NCC2=NCCN2)c1` [Example K2, (3-Chloro-phenyl)-(4,5-dihydro-1H-imidazol-2-ylmethyl)-amine] returned a Ki of 0.007 µM.

On to `Clc1ccccc1OCC1=NCCN1` [Example K10, 2-(2-Chloro-phenoxymethyl)-4,5-dihydro-1H-imidazole], for which the Ki worked out at 0.064 µM.

`Clc1cccc(OCC2=NCCN2)c1Cl` [Example K12, 2-(2,3-Dichloro-phenoxymethyl)-4,5-dihydro-1H-imidazole]: the Ki was found to be 0.0063 µM.

With `FC(F)(F)c1cccc(OCC2=NCCN2)c1` [Example K17, 2-(3-Trifluoromethyl-phenoxymethyl)-4,5-dihydro-1H-imidazole], affinity was put at a Ki of 0.0913 µM.

The compound `c1ccc(C2CC2)c(OCC2=NCCN2)c1` [Example K20, 2-(2-Cyclopropyl-phenoxymethyl)-4,5-dihydro-1H-imidazole] showed a Ki of 0.0325 µM.

`CC(Oc1c(Cl)cccc1Cl)C1=NCCN1` (stereo not drawn) [Example K21, 2-[1-(2,6-Dichloro-phenoxy)-ethyl]-4,5-dihydro-1H-imidazole] came in with a Ki of 0.0262 µM.

The compound `Cc1c(Cl)cccc1NNC1=NCCN1` [Example K25, N-(3-Chloro-2-methyl-phenyl)-N′-(4,5-dihydro-1H-imidazol-2-yl)-hydrazine] gave a Ki of 0.0057 µM.

The experiment is the same for the next values; noted with them: radioligand of the binding assay; TAAR1 species not stated at this place; read-out: calculated Kd value of the radioligand.
On to `c1ccc2c(c1)CCCC2C1=NCCN1` (racemic) [[^3H]-rac-2-(1,2,3,4-tetrahydro-1-naphthyl)-2-imidazoline, reference compound], for which the Kd is 60 nM.
